From patent US20110160167A1, “Steroid Derivatives Acting As Glucocorticosteroid Receptor Agonists” (AstraZeneca AB, priority 2007, published 2011)

target: T1, recombinant human GR (Homo sapiens, UniProt P04150); experiment: Human Glucocorticoid Receptor (GR) Assay (fluorescence polarization, Panvera/Invitrogen kit); settings: GS Red tracer, 2 hours at room temperature, 100% control 10 μM Dexamethasone, read-out: Inhibition of GR binding, IC50
T1 construct: purchased Panvera/Invitrogen P2812 (kit P2893)
T1 sequence (P04150 1-777): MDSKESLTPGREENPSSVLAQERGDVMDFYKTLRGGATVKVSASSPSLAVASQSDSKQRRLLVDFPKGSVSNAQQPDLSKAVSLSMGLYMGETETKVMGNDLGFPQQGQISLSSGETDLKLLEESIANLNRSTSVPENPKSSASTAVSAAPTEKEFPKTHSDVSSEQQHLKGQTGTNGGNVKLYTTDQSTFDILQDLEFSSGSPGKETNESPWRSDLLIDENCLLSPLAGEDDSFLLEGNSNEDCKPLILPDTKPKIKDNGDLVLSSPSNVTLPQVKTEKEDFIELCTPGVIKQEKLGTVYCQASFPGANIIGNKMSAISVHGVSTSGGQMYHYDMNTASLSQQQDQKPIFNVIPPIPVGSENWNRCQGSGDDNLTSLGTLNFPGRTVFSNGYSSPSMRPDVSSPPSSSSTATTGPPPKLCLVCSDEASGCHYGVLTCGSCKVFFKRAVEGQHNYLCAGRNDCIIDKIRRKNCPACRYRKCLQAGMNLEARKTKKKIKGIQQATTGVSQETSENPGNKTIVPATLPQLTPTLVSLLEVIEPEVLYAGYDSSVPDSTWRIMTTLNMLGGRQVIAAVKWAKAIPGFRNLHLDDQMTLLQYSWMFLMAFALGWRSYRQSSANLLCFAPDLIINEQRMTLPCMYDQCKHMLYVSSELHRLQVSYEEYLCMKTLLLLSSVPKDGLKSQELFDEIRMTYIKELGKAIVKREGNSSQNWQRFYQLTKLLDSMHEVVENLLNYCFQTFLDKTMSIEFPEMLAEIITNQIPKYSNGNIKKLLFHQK
Procedure: Human Glucocorticoid Receptor (GR) Assay The assay is based on a commercial kit from Panvera/Invitrogen (Part number P2893). The assay technology is fluorescence polarization. The kit utilises recombinant human GR (Panvera, Part number P2812), a Fluoromone™ labelled tracer (GS Red, Panvera, Part number P2894) and a Stabilizing Peptide 10× (Panvera, Part number P2815). The GR and Stabilizing Peptide reagents are stored at −70° C. while the GS Red is stored at −20° C. Also included in the kit are 1M DTT (Panvera, Part number P2325, stored at −20° C.) and GR Screening buffer 10× (Panvera, Part number P2814, stored at −70° C. initially but once thawed stored at room temperature). Avoid repeated freeze/thaws for all reagents. The GR Screening buffer 10× comprises 100 mM potassium phosphate, 200 mM sodium molybdate, 1 mM EDTA and 20% DMSO. Test compounds (1 μL) and controls (1 μL) in 100% DMSO were added to black polystyrene 384-well plates (Greiner low volume black flat-bottom, part number 784076). 0% control was 100% DMSO and 100% control was 10 μM Dexamethasone. Background solution (8 μL; assay buffer 10×, Stabilizing Peptide, DTT and ice cold MQ water) was added to the background wells. GS Red solution (7 μL; assay buffer 10×, Stabilizing Peptide, DTT, GS Red and ice cold water) was added to all wells except background wells. GR solution (7 μL; assay buffer 10×, Stabilizing Peptide, DTT, GR and ice cold water) was added to all wells. The plate was sealed and incubated in a dark at room temperature for 2 hours. The plate was read in an Analyst plate reader (LJL Biosystems/Molecular Devices Corporation) or other similar plate reader capable of recording fluorescence polarization (excitation wavelength 530 nm, emission wavelength 590 nm and a dichroic mirror at 561 nm).

IC50	Structure (SMILES)
8 nM	CCC[C@@H]1O[C@@H]2C[C@H]3[C@@H]4CCC5=Cc6c(cnn6-c6ccc(F)c(CN7CCOCC7)c6)C[C@]5(C)[C@H]4[C@@H](O)C[C@]3(C)[C@]2(C(=O)CO)O1 [Example 1, 1-[(4aR,4bS,5S,6aS,6bS,8R,9aR,10aS,10bS)-1-[4-fluoro-3-(morpholin-4-ylmethyl)phenyl]-5-hydroxy-4a,6a-dimethyl-8-propyl-4,4a,4b,5,6,6a,9a,10,10a,10b,11,12-dodecahydro[1,3]-dioxolo[3′,4′]cyclopenta-[1′,2′:5,6]naphtho[1,2-f]indazol-6b(1H)-yl]-2-hydroxyethanone trifluoroacetic acid]
8.7 nM	CCC[C@H]1O[C@@H]2C[C@H]3[C@@H]4CCC5=Cc6c(cnn6-c6ccc(F)c(CN7CCOCC7)c6)C[C@]5(C)[C@H]4[C@@H](O)C[C@]3(C)[C@]2(C(=O)CO)O1 [Example 2]
37 nM	CCC[C@@H]1O[C@@H]2C[C@H]3[C@@H]4CCC5=Cc6c(cnn6-c6ccc(F)c(CN7CCCC7)c6)C[C@]5(C)[C@H]4[C@@H](O)C[C@]3(C)[C@]2(C(=O)CO)O1 [Example 3, 1-[(4aR,4bS,5S,6aS,6bS, 8R,9aR,10aS,10bS)-1-[4-fluoro-3-(pyrrolidin-1-ylmethyl)phenyl]-5-hydroxy-4a,6a-dimethyl-8-propyl-4,4a,4b,5,6,6a,9a,10, 10a,10b,11,12-dodecahydro[1,3]dioxolo [3′,4′]cyclopenta [1′,2′:5,6]naphtho[1,2-f]indazol-6b(1H)-yl]-2-hydroxyethanone]
21 nM	CCC[C@@H]1O[C@@H]2C[C@H]3[C@@H]4CCC5=Cc6c(cnn6-c6ccc(F)c(CN7CCN(C)CC7)c6)C[C@]5(C)[C@H]4[C@@H](O)C[C@]3(C)[C@]2(C(=O)CO)O1 [Example 4, 1-[(4aR,4bS,5S,6aS,6bS, 8R,9aR,10aS,10bS)-1-{4-fluoro-3-[(4-methylpiperazin-1-yl)methyl]phenyl}-5-hydroxy-4a,6a-dimethyl-8-propyl-4,4a,4b,5,6,6a,9a,10, 10a,10b,11,12-dodecahydro[1,3]dioxolo [3′,4′]cyclopenta [1′,2′:5,6]naphtho[1,2-f]indazol-6b(1H)-yl]-2-hydroxyethanone trifluoroacetic acid]
77 nM	CCC[C@H]1O[C@@H]2C[C@H]3[C@@H]4CCC5=Cc6c(cnn6-c6ccc(F)c(CN7CCN(C)CC7)c6)C[C@]5(C)[C@H]4[C@@H](O)C[C@]3(C)[C@]2(C(=O)CO)O1 [Example 5, 1-[(4aR,4bS,5S,6aS,6bS, 8S,9aR,10aS,10bS)-1-{4-fluoro-3-[(4-methylpiperazin-1-yl)methyl]phenyl}-5-hydroxy-4a,6a-dimethyl-8-propyl-4,4a,4b,5,6,6a,9a,10, 10a,10b,11,12-dodecahydro[1,3]dioxolo [3′,4′]cyclopenta [1′,2′:5,6]naphtho[1,2-f]indazol-6b(1H)-yl]-2-hydroxyethanone trifluoroacetic acid]
72 nM	CCC[C@@H]1OC2C[C@H]3[C@@H]4CCC5=Cc6c(cnn6-c6ccc(F)c(CN(CC)CC)c6)C[C@]5(C)[C@H]4[C@@H](O)C[C@]3(C)[C@]2(C(=O)CO)O1 (stereo partly drawn) [Example 6, 1-[(4aR,4bS,5S,6aS,6bS, 8R,9aR,10aS,10bS)-1-{3-[(diethylamino)methyl]-4-fluorophenyl}-5-hydroxy-4a,6a-dimethyl-8-propyl-4,4a,4b,5,6,6a,9a,10, 10a,10b,11,12-dodecahydro[1,3]dioxolo [3′,4′]cyclopenta [1′,2′:5,6]naphtho[1,2-f]indazol-6b(1H)-yl]-2-hydroxyethanone]
12 nM	CCC[C@@H]1O[C@@H]2C[C@H]3[C@@H]4CCC5=Cc6c(cnn6-c6ccc(F)c(CN7CCSCC7)c6)C[C@]5(C)[C@H]4[C@@H](O)C[C@]3(C)[C@]2(C(=O)CO)O1 [Example 7, 1-[(4aR,4bS,5S,6aS,6bS, 8R,9aR,10aS,10bS)-1-[4-fluoro-3-(thiomorpholin-4-ylmethyl)phenyl]-5-hydroxy-4a,6a-dimethyl-8-propyl-4,4a,4b,5,6,6a,9a,10, 10a,10b,11,12-dodecahydro[1,3]dioxolo [3′,4′]cyclopenta [1′,2′:5,6]naphtho[1,2-f]indazol-6b(1H)-yl]-2-hydroxyethanone trifluoroacetic acid]
16 nM	CCC[C@H]1O[C@@H]2C[C@H]3[C@@H]4CCC5=Cc6c(cnn6-c6ccc(F)c(CN7CCSCC7)c6)C[C@]5(C)[C@H]4[C@@H](O)C[C@]3(C)[C@]2(C(=O)CO)O1 [Example 8, 1-[(4aR,4bS,5S,6aS,6bS, 8S,9aR,10aS,10bS)-1-[4-fluoro-3-(thiomorpholin-4-ylmethyl)phenyl]-5-hydroxy-4a,6a-dimethyl-8-propyl-4,4a,4b,5,6,6a,9a,10, 10a,10b,11,12-dodecahydro[1,3]dioxolo [3′,4′]cyclopenta [1′,2′:5,6]naphtho[1,2-f]indazol-6b(1H)-yl]-2-hydroxyethanone trifluoroacetic acid]
21 nM	CCC[C@@H]1O[C@@H]2C[C@H]3[C@@H]4CCC5=Cc6c(cnn6-c6ccc(F)c(CN7CCC(O)CC7)c6)C[C@]5(C)[C@H]4[C@@H](O)C[C@]3(C)[C@]2(C(=O)CO)O1 [Example 9, 1-[(4aR,4bS,5S,6aS,6bS, 8R,9aR,10aS,10bS)-1-{4-fluoro-3-[(4-hydroxypiperidin-1-yl)methyl]phenyl}-5-hydroxy-4a,6a-dimethyl-8-propyl-4,4a,4b,5,6,6a,9a,10, 10a,10b,11,12-dodecahydro[1,3]dioxolo [3′,4′]cyclopenta [1′,2′:5,6]naphtho[1,2-f]indazol-6b(1H)-yl]-2-hydroxyethanone trifluoroacetic acid]
67 nM	CCC[C@H]1O[C@@H]2C[C@H]3[C@@H]4CCC5=Cc6c(cnn6-c6ccc(F)c(CN7CCC(O)CC7)c6)C[C@]5(C)[C@H]4[C@@H](O)C[C@]3(C)[C@]2(C(=O)CO)O1 [Example 10, 1-[(4aR,4bS,5S,6aS,6bS, 8S,9aR,10aS,10bS)-1-{4-fluoro-3-[(4-hydroxypiperidin-1-yl)methyl]phenyl}-5-hydroxy-4a,6a-dimethyl-8-propyl-4,4a,4b,5,6,6a,9a,10, 10a,10b,11,12-dodecahydro[1,3]dioxolo [3′,4′]cyclopenta [1′,2′:5,6]naphtho[1,2-f]indazol-6b(1H)-yl]-2-hydroxyethanone trifluoroacetic acid]
34 nM	CCC[C@@H]1O[C@@H]2C[C@H]3[C@@H]4CCC5=Cc6c(cnn6-c6ccc(F)c(CNCCCO)c6)C[C@]5(C)[C@H]4[C@@H](O)C[C@]3(C)[C@]2(C(=O)CO)O1 [Example 11, 1-[(4aR,4bS,5S,6aS,6bS, 8R,9aR,10aS,10bS)-1-(4-fluoro-3-{[(3-hydroxypropyl)amino]methyl}phenyl)-5-hydroxy-4a,6a-dimethyl-8-propyl-4,4a,4b,5,6,6a,9a,10, 10a,10b,11,12-dodecahydro[1,3]dioxolo [3′,4′]cyclopenta [1′,2′:5,6]naphtho[1,2-f]indazol-6b(1H)-yl]-2-hydroxyethanone trifluoroacetic acid]
76 nM	CCC[C@H]1O[C@@H]2C[C@H]3[C@@H]4CCC5=Cc6c(cnn6-c6ccc(F)c(CNCCCO)c6)C[C@]5(C)[C@H]4[C@@H](O)C[C@]3(C)[C@]2(C(=O)CO)O1 [Example 12, 1-[(4aR,4bS,5S,6aS,6bS, 8S,9aR,10aS,10bS)-1-(4-fluoro-3-{[(3-hydroxypropyl)amino]methyl}phenyl)-5-hydroxy-4a,6a-dimethyl-8-propyl-4,4a,4b,5,6,6a,9a,10, 10a,10b,11,12-dodecahydro[1,3]dioxolo [3′,4′]cyclopenta [1′,2′:5,6]naphtho[1,2-f]indazol-6b(1H)-yl]-2-hydroxyethanone trifluoroacetic acid]
